Each structure is given as a SMILES string. Where two headings read alike, the source gives them in different places.

The test system of the assay is RSV (Long). The assay can be described thus: RSV cytopathic effect (CPE)-based viral replication assay. Format: cell-based, respiratory syncytial virus (RSV). The following applies: HEp-2 cells infected with RSV Long at MOI 0.015, 3 days at 37° C., cell viability by CellTiter-Glo luminescence, read-out: EC50 (nm). The method in brief:
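HEp-2 cells, 2,500 per well in DMEM with 2% heat-inactivated FBS, treated with 10-point compound dilutions and infected with RSV Long at MOI 0.015. After 3 days at 37 °C, 5% CO2, viability read by CellTiter-Glo luminescence; EC50 derived from CPE data.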

Setting [1] is: human respiratory syncytial virus, HEp-2, 72 h.

A word on the EC50: it is the midpoint of the concentration-response curve. For the compound `CNC1(C(=O)N2CCC3(CC2)C(=O)N(Cc2ncc4ccccc4c2-c2ccc(F)nc2)c2cnccc23)CC1` [Example 111c, 1′-((4-(6-fluoropyridin-3-yl)isoquinolin-3-yl)methyl)-1-(1-(methylamino)cyclopropanecarbonyl)spiro[piperidine-4,3′-pyrrolo[2,3-c]pyridin-]2′(1′H)-one], under setting [1], the EC50 turned out to be 1.4 nM.

For `O=C1CC(c2c(Cn3c(=O)n(C4CC4)c4ccncc43)ncc3ccccc23)CN1` (stereo not shown) [Example 112c, 1-cyclopropyl-3-((4-(5-oxopyrrolidin-3-yl)isoquinolin-3-yl)methyl)-1H-imidazo[4,5-c]pyridin-2(3H)-one], the concentration giving a half-maximal response (EC50) was 12 nM.

Consider `CN(C)C1(C(=O)N2CC3(C2)C(=O)N(Cc2ncc4ccccc4c2-c2ccc(C(N)=O)nc2)c2ccccc23)CC1` [Example 113b, 5-(3-((1-(1-(Dimethylamino)cyclopropanecarbonyl)-2′-oxospiro[azetidine-3,3′-indolin]-1′-yl)methyl)isoquinolin-4-yl)picolinamide], for which, under setting [1], the EC50 amounted to 17 nM.

Regarding `CS(=O)(=O)Nc1ccc(-c2c(CN3C(=O)C4(CN(C(=O)C5(N)CC5)C4)c4ccccc43)ncc3ccccc23)cc1` [Example 114c, N-(4-(3-((1-(1-aminocyclopropanecarbonyl)-2′-oxospiro[azetidine-3,3′-indolin]-1′-yl)methyl)isoquinolin-4-yl)phenyl)methanesulfonamide], the 50% effective concentration (EC50) under setting [1] is 5.5 nM.

As to `CNC1(C(=O)N2CC3(C2)C(=O)N(Cc2ncc4ccccc4c2-c2ccc(C(N)=O)nc2)c2ccccc23)CC1` [Example 115c, 5-(3-((1-(1-(methylamino)cyclopropanecarbonyl)-2′-oxospiro[azetidine-3,3′-indolin]-1′-yl)methyl)isoquinolin-4-yl)picolinamide], the EC50 under setting [1] worked out at 15 nM.

In the case of `NC(=O)N1CC2(C1)C(=O)N(Cc1ncc3ccccc3c1-c1ccc(S(N)(=O)=O)cc1)c1ccccc12` [Example 116b, 2′-oxo-1′-((4-(4-sulfamoylphenyl)isoquinolin-3-yl)methyl)spiro[azetidine-3,3′-indoline]-1-carboxamide], under setting [1], the EC50 was 1.3 nM.

As to `CS(=O)(=O)Nc1ccc(-c2c(CN3C(=O)C4(CN(C(N)=O)C4)c4ccccc43)ncc3ccccc23)cc1` [Example 117, 1′-((4-(4-(methylsulfonamido)phenyl)isoquinolin-3-yl)methyl)-2′-oxospiro[azetidine-3,3′-indoline]-1-carboxamide], under setting [1], the EC50 came to 0.75 nM.

Consider `CC(C)(O)C(=O)N1CC2(C1)C(=O)N(Cc1ncc3ccccc3c1-c1cccnc1)c1ccccc12` [Example 118, 1-(2-hydroxy-2-methylpropanoyl)-1′-((4-(pyridin-3-yl)isoquinolin-3-yl)methyl)spiro[azetidine-3,3′-indolin]-2′-one], for which the EC50 under setting [1] turned out to be 3.8 nM.

For the compound `CN(C)C(=O)c1ccc(-c2c(CN3C(=O)C4(CCN(C(=O)C5(N(C)C)CC5)CC4)c4ccncc43)ncc3ccccc23)cn1` [Example 119b, 5-(3-((1-(1-(dimethylamino)cyclopropanecarbonyl)-2′-oxospiro[piperidine-4,3′-pyrrolo[2,3-c]pyridin]-1′(2′H)-yl)methyl)isoquinolin-4-yl)-N,N-dimethylpicolinamide], under setting [1], the EC50 came out at 2.8 nM.

`CN(C)C(=O)c1ccc(-c2c(CN3C(=O)C4(CCN(C(=O)C5(N)CC5)CC4)c4ccncc43)ncc3ccccc23)cn1` [Example 120, 5-(3-((1-(1-aminocyclopropanecarbonyl)-2′-oxospiro[piperidine-4,3′-pyrrolo[2,3-c]pyridin]-1′(2′H)-yl)methyl)isoquinolin-4-yl)-N,N-dimethylpicolinamide]: the EC50 under setting [1] was 4.7 nM.

On to `CN(C)C(=O)c1ccc(-c2c(CN3C(=O)C4(CN(C(=O)C5(N)CC5)C4)c4ccccc43)ncc3ccccc23)cn1` [Example 121b, 5-(3-((1-(1-Aminocyclopropanecarbonyl)-2′-oxospiro[azetidine-3,3′-indolin]-1′-yl)methyl)isoquinolin-4-yl)-N,N-dimethylpicolinamide], for which the EC50 under setting [1] is 2.4 nM.

Regarding `CNC1(C(=O)N2CCC3(CC2)C(=O)N(Cc2ncc4ccccc4c2-c2ccc(C(=O)N(C)C)nc2)c2cnccc23)CC1` [Example 122, N,N-dimethyl-5-(3-((1-(1-(methylamino)cyclopropanecarbonyl)-2′-oxospiro[piperidine-4,3′-pyrrolo[2,3-c]pyridin]-1′(2′H)-yl)methyl)isoquinolin-4-yl)picolinamide], the EC50 under setting [1] is 8.5 nM.

`CNC1(C(=O)N2CC3(C2)C(=O)N(Cc2ncc4ccccc4c2-c2ccc(S(N)(=O)=O)nc2)c2ccccc23)CC1` [Example 123b, 5-(3-((1-(1-(methylamino)cyclopropanecarbonyl)-2′-oxospiro[azetidine-3,3′-indolin]-1′-yl)methyl)isoquinolin-4-yl)pyridine-2-sulfonamide]: the EC50 under setting [1] is 15 nM.

`NC1(C(=O)N2CC3(C2)C(=O)N(Cc2ncc4ccccc4c2-c2ccc(S(N)(=O)=O)nc2)c2ccccc23)CC1` [Example 124, 5-(3-((1-(1-Aminocyclopropanecarbonyl)-2′-oxospiro[azetidine-3,3′-indolin]-1′-yl)methyl)isoquinolin-4-yl)pyridine-2-sulfonamide]: the EC50 under setting [1] turned out to be 9.8 nM.

As to `NC1(C(=O)N2CC3(C2)C(=O)N(Cc2ncc4ccccc4c2-c2ccc(S(N)(=O)=O)cc2)c2ccccc23)CC1` [Example 125, 4-(3-((1-(1-aminocyclopropanecarbonyl)-2′-oxospiro[azetidine-3,3′-indolin]-1′-yl)methyl)isoquinolin-4-yl)benzenesulfonamide], the EC50 under setting [1] was 6 nM.

Take `O=c1n(Cc2ncc3ccccc3c2COCC(F)(F)F)c2cnccc2n1C1CC1` [Example 127, 1-Cyclopropyl-3-((4-((2,2,2-trifluoroethoxy)methyl)isoquinolin-3-yl)methyl)-1H-imidazo[4,5-c]pyridin-2(3H)-one]: the EC50 under setting [1] was 690 nM.

Consider `O=C(N1CC2(C1)C(=O)N(Cc1ncc3ccccc3c1-c1cccnc1)c1ccccc12)C(F)(F)F` [Example 128, 1′-((4-(Pyridin-3-yl)isoquinolin-3-yl)methyl)-1-(2,2,2-trifluoroacetyl)spiro[azetidine-3,3′-indolin]-2′-one], for which the EC50 under setting [1] was 20 nM.

On to `O=C(N1CCC2(CC1)C(=O)N(Cc1ncc3ccccc3c1-c1cccnc1)c1cnccc12)C(F)(F)F` [Example 129b, 1′-((4-(Pyridin-3-yl)isoquinolin-3-yl)methyl)-1-(2,2,2-trifluoroacetyl)spiro[piperidine-4,3′-pyrrolo[2,3-c]pyridin]-2′(1′H)-one], for which, under setting [1], the concentration giving a half-maximal response (EC50) was 5.2 nM.

With `Cc1noc(C)c1-c1c(CN2C(=O)C3(CCN(C(=O)C4(N)CC4)CC3)c3ccncc32)ncc2ccccc12` [Example 130c, 1-(1-Aminocyclopropanecarbonyl)-1′-((4-(3,5-dimethylisoxazol-4-yl)isoquinolin-3-yl)methyl)spiro[piperidine-4,3′-pyrrolo[2,3-c]pyridin]-2′(1′H)-one], under setting [1], the EC50 came to 1000 nM.

With `NC(=O)N1CC2(C1)C(=O)N(Cc1ncc3ccccc3c1-c1cccnc1)c1ccccc12` [Example 131, 2′-Oxo-1′-((4-(pyridin-3-yl)isoquinolin-3-yl)methyl)spiro[azetidine-3,3′-indoline]-1-carboxamide], under setting [1], the EC50 was 1.6 nM.

Consider `CS(=O)(=O)Nc1ccc(-c2c(CN3C(=O)C4(CN(C(=O)C5(N)CC5)C4)c4ccccc43)ncc3ccccc23)cc1` [Example 132b, N-(4-(3-((1-(1-aminocyclopropanecarbonyl)-2′-oxospiro[azetidine-3,3′-indolin]-1′-yl)methyl)isoquinolin-4-yl)phenyl)methanesulfonamide], for which the EC50 was determined as 5.1 nM.

For the compound `CNC(=O)O[C@H]1C[C@@]2(C1)C(=O)N(Cc1ncc3ccccc3c1-c1ccc(C#N)nc1)c1ccccc12` [Example 133, (1R,3R)-1′-((4-(6-cyanopyridin-3-yl)isoquinolin-3-yl)methyl)-2′-oxospiro[cyclobutane-1,3′-indolin]-3-yl methylcarbamate], the concentration giving a half-maximal response (EC50) under setting [1] is 3.4 nM.

`COC(=O)N1CC2(C1)C(=O)N(Cc1ncc3ccccc3c1-c1ccc(NS(C)(=O)=O)nc1)c1ccccc12` [Example 134b, Methyl 1′-((4-(6-(methylsulfonamido)pyridin-3-yl)isoquinolin-3-yl)methyl)-2′-oxospiro[azetidine-3,3′-indoline]-1-carboxylate]: the concentration giving a half-maximal response (EC50) under setting [1] was determined as 0.55 nM.

With `NC(=O)N1CCC2(CC1)C(=O)N(Cc1ncc3ccccc3c1-c1cccnc1)c1cnccc12` [Example 135b, 2′-oxo-1′-((4-(pyridin-3-yl)isoquinolin-3-yl)methyl)-1′,2′-dihydrospiro[piperidine-4,3′-pyrrolo[2,3-c]pyridine]-1-carboxamide], under setting [1], the EC50 was 2 nM.

On to `CS(=O)(=O)N1CCC2(CC1)C(=O)N(Cc1ncc3ccccc3c1-c1cccnc1)c1cnccc12` [Example 136, 1-(methylsulfonyl)-1′-((4-(pyridin-3-yl)isoquinolin-3-yl)methyl)spiro[piperidine-4,3′-pyrrolo[2,3-c]pyridin]-2′(1′H)-one], for which the EC50 under setting [1] amounted to 0.8 nM.

On to `NC1(C(=O)N2CCC3(CC2)C(=O)N(Cc2ncc4ccccc4c2-c2cccnc2)c2cnccc23)CC1` [Example 137], for which, under setting [1], the concentration giving a half-maximal response (EC50) worked out at 5.4 nM.

Regarding `CC(C)(O)C(=O)N1CCC2(CC1)C(=O)N(Cc1ncc3ccccc3c1-c1cccnc1)c1cnccc12` [Example 138, 1-(2-hydroxy-2-methylpropanoyl)-1′-((4-(pyridin-3-yl)isoquinolin-3-yl)methyl)spiro[piperidine-4,3′-pyrrolo[2,3-c]pyridin]-2′(1′H)-one], the EC50 under setting [1] turned out to be 3.6 nM.

On to `O=C1N(Cc2ncc3ccccc3c2-c2cccnc2)c2cnccc2C12CCN(S(=O)(=O)CC(F)(F)F)CC2` [Example 139, 1′-((4-(pyridin-3-yl)isoquinolin-3-yl)methyl)-1-((2,2,2-trifluoroethyl)sulfonyl)spiro[piperidine-4,3′-pyrrolo[2,3-c]pyridin]-2′(1′H)-one], for which the EC50 under setting [1] worked out at 7.2 nM.

The values are drawn from patent US20190002436A1, “RESPIRATORY SYNCYTIAL VIRUS INHIBITORS” (MEDIVIR AB, priority 2015, published 2019).
